In assay [1] the test system is cancer cell line that is known to have AFP receptors. The assay can be described thus: Binding of FITC labelled peptide to cancer cells. Type of assay: cell-based. To be noted: FITC at the N terminal; fluorescence; qualitative.
Assay [2] deals with MCF-7 cells (human breast cancer cell line). The assay can be described thus: Uptake of FITC labelled peptide into MCF-7 cells. It counts as cell-based. To be noted: FITC fluorescence; qualitative. From the text:
FIGS. 10A and B show the results of this experiment. […] This experiment provides evidence that the peptides according to the present invention provide for intracellular delivery of bioactive agents to the interior of cells expressing AFPr, particularly cancer cells.

Assay [3] deals with alpha-fetoprotein receptor present in MCF-7 cell extracts. The assay can be described thus: Competitive ELISA with biotin labeled AFP on MCF-7 cell extract. Type of assay: binding, human. Particulars: for inhibition (competition with AFP-biotin): constant AFP-biotin 0.5 μg/ml, plate coated with MCF-7 extract; for competition with biotin labeled AFP for the AFP receptor: qualitative, biotin labeled AFP 0.5 ug/ml. Here is the method: To see if the enzymatic digests were still biologically active, the enzymatic digests were used in a competitive based ELISA with whole AFP molecule labeled with biotin. The ability of the enzymatic digest dilutions to compete for the alpha-fetoprotein receptor present in MCF-7 cell extracts was determined using a constant 0.5 ug/ml of biotin labeled AFP. […] This fragment was run on a gradient tricine gel, transferred to a PVDF membrane and sent for N terminal sequencing. Results gave the amino acid (AA) sequence V-N-P-G . . . corresponding to AA 493 to 496 of Human AFP as published in Uniprot Data base (FIG. 2).
A plate can be coated with an extract of a cancer cell line known to have AFP receptors (for example, MCF-7). The plate is coated at 100 ug/ml total protein concentration and the peptide to be tested and AFP biotin is mixed with an initial peptide concentration of 250 μg/ml and subsequent half dilutions made. […] (FIG. 3). This assay was repeated with subsequent peptides synthesized in order to determine the smallest amino acid chain that would compete along with other peptides not in this region of the AFP molecule as well as from a different species.
For orientation: An ELISA detects its analyte on a solid surface through an enzyme-linked reagent.

The target in assay [4] is alpha-fetoprotein receptor (AFP receptor) (human). The assay can be described thus: competition assay, plate coated with MCF-7 extract, AFP-biotin constant at 0.5 µg/ml.

No end group written: not given here. *: point of attachment. FITC = O=C1OC2(c3ccc(O)cc3Oc3cc(O)ccc32)c2ccc(NC(=S)*)cc21

Regarding “FITC labeled Fragment 4: Fragment 4 synthesized with FITC at the N terminal ({FITC}-LQTMKQEFLIN)”, in assay [1], the “binding to cancer cells” value is on record as “demonstrated binding”. Also, the “uptake into MCF-7 human breast cancer cells” value in assay [2] is recorded as “uptake”.
As for “HKDLCQAQGVALQTMKQEFLIN [Fragment 3, amino acids 534-555 of human AFP]”, the “inhibition (competition with AFP-biotin)” value was found to be 50% in assay [3] (peptide 7.8 μg/ml) and 85% in assay [3] (peptide 250 μg/ml). Further, in assay [3], the “competition with biotin labeled AFP for the AFP receptor” value is “found to compete”.
On to “KQEFLIN [amino acids 549-555 of human AFP]”, for which, in assay [3], the “competition with biotin labeled AFP for the AFP receptor” value was “found to compete”.

B1: Fragment 3, … (peptide)
peptide: HKDLCQAQGVALQTMKQEFLIN
Usually % inhibition stands for how much of the control response was suppressed. Low readings indicate a weak effect, high ones a strong effect. In assay [4], B1 returned a % inhibition at 7.8 µg/ml of 50% and a % inhibition at 250 µg/ml of 85%.

The values are drawn from US20120270238A1, “Peptides That Bind the Alpha-Fetoprotein (AFP) Receptor and Uses Thereof” (priority 2009, published 2012).
